Experimental data as given in patent US5849797A, “D-β-lysylmethanediamine derivatives and preparation thereof” (Zaidan Hojin Biseibutsu Kagaku Kenkyu Kai, priority 1994, dated 1998).
In brackets after ≈: the same amount, converted by molar mass.

Tests used:
P. rettgeri GN466 = assay: Antibacterial activity, MIC by serial dilution method; format: cell-based; settings: Providencia rettgeri, 0.5% peptone agar, 37° C., 18 hours
[1] = tested on: Pseudomonas aeruginosa A3; assay: as above; format: cell-based; settings: 0.5% peptone agar, 37° C., 18 hours
B. subtilis NRRL B-558 = assay: as above; format: cell-based; settings: Bacillus subtilis, NRRLB558, 0.5% peptone agar, 37° C., 18 hours
[2] = tested on: mouse leukemia P388 cells; assay: Antitumor activity, growth inhibition of mouse leukemia P388 cells; format: cell-based
Procedure: In this way, such concentration of the tested compound which can inhibit the growth of the P388 cells by 50%, that is, the IC50 -value of the tested compound against the P388 cells was estimated. For comparison purpose, Bellenamine was tested in the same manner as above.

B. subtilis PC1219 = assay: Antibacterial activity, MIC by serial dilution method; format: cell-based; settings: Bacillus subtilis, 0.5% peptone agar, 37° C., 18 hours
[3] = tested on: Providencia rettgeri GN311; assay: as above; format: cell-based; settings: 0.5% peptone agar, 37° C., 18 hours
Escherichia coli NIHJ = assay: as above; format: cell-based; settings: 0.5% peptone agar, 37° C., 18 hours
B. cereus ATCC10702 = assay: as above; format: cell-based; settings: Bacillus cereus, 0.5% peptone agar, 37° C., 18 hours
[4] = tested on: Staphylococcus aureus FDA209P; assay: as above; format: cell-based; settings: 0.5% peptone agar, 37° C., 18 hours
P. mirabilis IFM OM-9 = assay: as above; format: cell-based; settings: Proteus mirabilis, IFMOM9, 0.5% peptone agar, 37° C., 18 hours
Micrococcus luteus FDA16 = assay: as above; format: cell-based; settings: 0.5% peptone agar, 37° C., 18 hours
[5] = tested on: Shigella dysenteriae JS11910; assay: as above; format: cell-based; settings: JS11910, 18 h
Serratia marcescens = assay: as above; format: cell-based; settings: 0.5% peptone agar, 37° C., 18 hours
[6] = tested on: Klebsiella pneumoniae PCI602; assay: as above; format: cell-based; settings: 0.5% peptone agar, 37° C., 18 hours
S. flexnelli 4b JS1811 = assay: as above; format: cell-based; settings: 0.5% peptone agar, 37° C., 18 hours
Procedure: The minimum inhibitory concentrations (MIC.) of (R)-3,6-diamino-N-(2-aminoethyl)hexanamide of the formula (Ia) and (R)-3,6-diamino-N-(3-aminopropyl)hexanamide of the formula (Ib) against the growth of various bacteria were determined by a serial dilution method on a 0.5% peptone agar medium (incubated at 37° C. for 18 hours). The results obtained are shown in Table 1 below, in comparison with the MIC. of D-β-lysylmethanediamine (Bellenamine).

Bacillus anthracis = assay: microbe, parasite or virus in culture; format: cell-based; settings: 18 h
S. aureus Smith = assay: Antibacterial activity, MIC by serial dilution method; format: cell-based; settings: Staphylococcus aureus, 0.5% peptone agar, 37° C., 18 hours
Proteus vulgaris OX19 = assay: as above; format: cell-based; settings: 0.5% peptone agar, 37° C., 18 hours
HIV (HTLV-IIIB strain) = assay: microbe, parasite or virus in culture; format: cell-based; settings: Human immunodeficiency virus 1, IIIB, MT4, 96 h, MT-4 cells, 4 days, 90 at 0 μg/ml, read-out: Rate (%) of presence of HIV antigen-positive cells; for activity at 0.1 µg/mL: 0.1 μg/ml; for activity at 1 µg/mL: 1 μg/ml; for activity at 10 µg/mL: 10 μg/ml
E. coli K-12 = assay: Antibacterial activity, MIC by serial dilution method; format: cell-based; settings: Escherichia coli, K12, 0.5% peptone agar, 37° C., 18 hours
MT-4 cells = assay: Cytotoxicity to MT-4 cells; format: cell-based, human; set-up: key: -: That the cytotoxicity was not observed; settings: absence of HIV
Procedure: Furthermore, cytotoxicity of the tested compound to the MT-4 cells was estimated. This was done by incubating the MT-4 cells at varying concentrations of the tested compound and in the absence of HIV but in the same manner of incubation and under the same conditions of incubation of MT-4 cells as those employed in the above-mentioned test procedures of assaying the activity of the tested compound to inhibit the infection of T-cells with HIV. That the cytotoxicity was not observed is represented by the symbol "-" in Table 2 below.

Solubility = format: physicochemical; settings: in water
mice = assay: Acute toxicity by intravenous injection to mice; format: in vivo; settings: 250 mg/kg

NCCC[C@@H](N)CC(=O)NCN [Bellenamine, D-β-lysylmethanediamine]
MIC (P. rettgeri GN466): 100 µg/mL (≈ 574 µM)
MIC [1]: 200 µg/mL (≈ 1150 µM)
MIC (B. subtilis NRRL B-558): 12.5 µg/mL (≈ 71.7 µM)
IC50 [2]: 0.36 µg/mL (≈ 2.07 µM)
MIC (B. subtilis PC1219): 12.5 µg/mL (≈ 71.7 µM)
MIC [3]: 50 µg/mL (≈ 287 µM)
MIC (Escherichia coli NIHJ): 200 µg/mL (≈ 1150 µM)
MIC (B. cereus ATCC10702): 50 µg/mL (≈ 287 µM)
MIC [4]: 50 µg/mL (≈ 287 µM)
MIC (P. mirabilis IFM OM-9): 200 µg/mL (≈ 1150 µM)
MIC (Micrococcus luteus FDA16): > 200 µg/mL
MIC [5]: > 200 µg/mL
MIC (Serratia marcescens): 200 µg/mL (≈ 1150 µM)
MIC [6]: > 200 µg/mL
MIC (S. flexnelli 4b JS1811): > 200 µg/mL
MIC (Bacillus anthracis): 100 µg/mL (≈ 574 µM)
MIC (S. aureus Smith): 6.25 µg/mL (≈ 35.9 µM)
MIC (Proteus vulgaris OX19): > 200 µg/mL
activity at 0.1 µg/mL (HIV (HTLV-IIIB strain)): 50%
activity at 1 µg/mL (HIV (HTLV-IIIB strain)): 5%
activity at 10 µg/mL (HIV (HTLV-IIIB strain)): 10%
MIC (E. coli K-12): > 200 µg/mL
Cytotoxicity (given in brackets) (MT-4 cells; 0.1 μg/ml): -
Cytotoxicity (given in brackets) (MT-4 cells; 1 μg/ml): -
Cytotoxicity (given in brackets) (MT-4 cells; 10 μg/ml): -

NCCC[C@@H](N)CC(=O)NCCN [Compound (Ia), (R)-3,6-diamino-N-(2-aminoethyl)hexanamide]
MIC (P. rettgeri GN466): 50 µg/mL (≈ 266 µM)
MIC [1]: 100 µg/mL (≈ 531 µM)
MIC (B. subtilis NRRL B-558): 25 µg/mL (≈ 133 µM)
IC50 [2]: 0.012 µg/mL (≈ 0.0637 µM)
MIC (B. subtilis PC1219): 25 µg/mL (≈ 133 µM)
MIC [3]: 25 µg/mL (≈ 133 µM)
MIC (Escherichia coli NIHJ): 100 µg/mL (≈ 531 µM)
MIC (B. cereus ATCC10702): 50 µg/mL (≈ 266 µM)
Solubility (Solubility): highly soluble in water
MIC [4]: 25 µg/mL (≈ 133 µM)
MIC (P. mirabilis IFM OM-9): 25 µg/mL (≈ 133 µM)
MIC (Micrococcus luteus FDA16): > 200 µg/mL
MIC [5]: 200 µg/mL (≈ 1060 µM)
Acute toxicity (death of mice) (mice): did not cause death of mice
MIC (Serratia marcescens): 100 µg/mL (≈ 531 µM)
MIC [6]: 200 µg/mL (≈ 1060 µM)
MIC (S. flexnelli 4b JS1811): 100 µg/mL (≈ 531 µM)
MIC (Bacillus anthracis): 100 µg/mL (≈ 531 µM)
MIC (S. aureus Smith): 6.25 µg/mL (≈ 33.2 µM)
MIC (Proteus vulgaris OX19): 200 µg/mL (≈ 1060 µM)
activity at 0.1 µg/mL (HIV (HTLV-IIIB strain)): 90%
activity at 1 µg/mL (HIV (HTLV-IIIB strain)): 80%
activity at 10 µg/mL (HIV (HTLV-IIIB strain)): 30%
MIC (E. coli K-12): 200 µg/mL (≈ 1060 µM)
Cytotoxicity (given in brackets) (MT-4 cells; 0.1 μg/ml): -
Cytotoxicity (given in brackets) (MT-4 cells; 1 μg/ml): -
Cytotoxicity (given in brackets) (MT-4 cells; 10 μg/ml): -

NCCCNC(=O)C[C@H](N)CCCN [Compound (Ib), (R)-3,6-diamino-N-(3-aminopropyl)hexanamide]
MIC (P. rettgeri GN466): 50 µg/mL (≈ 247 µM)
MIC [1]: 200 µg/mL (≈ 989 µM)
MIC (B. subtilis NRRL B-558): 100 µg/mL (≈ 494 µM)
IC50 [2]: 0.028 µg/mL (≈ 0.138 µM)
MIC (B. subtilis PC1219): 100 µg/mL (≈ 494 µM)
MIC [3]: 100 µg/mL (≈ 494 µM)
MIC (Escherichia coli NIHJ): 200 µg/mL (≈ 989 µM)
MIC (B. cereus ATCC10702): 200 µg/mL (≈ 989 µM)
Solubility (Solubility): highly soluble in water
MIC [4]: 200 µg/mL (≈ 989 µM)
MIC (P. mirabilis IFM OM-9): 50 µg/mL (≈ 247 µM)
MIC (Micrococcus luteus FDA16): > 200 µg/mL
MIC [5]: 200 µg/mL (≈ 989 µM)
Acute toxicity (death of mice) (mice): did not cause death of mice
MIC (Serratia marcescens): 200 µg/mL (≈ 989 µM)
MIC [6]: > 200 µg/mL
MIC (S. flexnelli 4b JS1811): 200 µg/mL (≈ 989 µM)
MIC (Bacillus anthracis): 200 µg/mL (≈ 989 µM)
MIC (S. aureus Smith): 50 µg/mL (≈ 247 µM)
MIC (Proteus vulgaris OX19): 200 µg/mL (≈ 989 µM)
activity at 0.1 µg/mL (HIV (HTLV-IIIB strain)): 80%
activity at 1 µg/mL (HIV (HTLV-IIIB strain)): 10%
activity at 10 µg/mL (HIV (HTLV-IIIB strain)): 5%
MIC (E. coli K-12): 200 µg/mL (≈ 989 µM)
Cytotoxicity (given in brackets) (MT-4 cells; 0.1 μg/ml): -
Cytotoxicity (given in brackets) (MT-4 cells; 1 μg/ml): -
Cytotoxicity (given in brackets) (MT-4 cells; 10 μg/ml): -
